# Experimental data as given in patent publication US8207090B2, “Process for the anti-germination and/or biocide treatment of bulbs or tubers by means of CIPC and a terpene or terpene oil” (Xeda International, priority 2005, dated 2012).
# How the values were obtained:
# [1] = in conventional solvents, cited from earlier work
# [2] = Solubility of CIPC in solvents / terpenes; assay type: physicochemical; conditions: with terpenes/terpene oils, at ambient temperature and as low as 0° C.
# Description: Furthermore, CIPC dissolves with difficulty in conventional solvents, and maximum CIPC concentrations of approximately 30% (weight/volume) are generally obtained. At best, concentrations of approximately 54% at […] have been obtained. This low solubility entails the use of large amounts of solvent and/or formulation in order to obtain the required amounts of active ingredient. Nevertheless, efforts are generally made to limit the use of these solvents owing to their inherent toxicity and/or the danger of use that they entail, especially as a result of their low boiling points, which result in high risks of flammability.
# It has now been discovered, and this is one of the subjects of the present invention, that terpenes and/or terpene oils, in particular eugenol, isoeugenol or clove oil, have a high capacity to dissolve CIPC, even in cases in which the two agents are applied separately. In particular, the use of terpenes and/or terpene oils of this type, applied before or after the CIPC, allows improved distribution of the CIPC on the potatoes. The separate application of the terpene or terpene oil therefore allows improved application, and accordingly penetration and efficacy, of the CIPC. […]
# potatoes = conditions: cited from earlier work; for Inhibition of tuber sprouts: in combination with CIPC
smiles,measurement,setting,value
"CC(C)OC(=O)Nc1cccc(Cl)c1 [CIPC, 3-chlorophenylisopropylcarbamate]","CIPC concentration, at best",[1]; at 180° C.,approximately 54%
same,Maximum CIPC concentration,[1],approximately 30 % (weight/volume)
same,CIPC concentration,[2],greater than 50 % by weight of CIPC relative to the total volume of the solution
C=C(C)C1CC=C(C)C(=O)C1 (stereo not drawn) [carvone],Treated batches of potatoes suitable for sale,"potatoes; dosage of 16.6 ppm, agent on its own",0%
CC/C=C\CC1=C(C)CCC1=O [jasmone],Inhibition of tuber sprouts,potatoes,does not produce positive results
C=C(C)[C@H]1CC=C(C)CC1 [limonene],Inhibition of tuber sprouts,potatoes,does not produce positive results
